Results on 22 compounds are retold here after PubChem BioAssay AID200 (DTP/NCI, 2004).

The subject of the assay is B6C3F1 mice, B16 melanoma ip, median survival T/C. The assay can be described thus: NCI In Vivo Anticancer Drug Screen. Data for tumor model B16 Melanoma (intraperitoneal) in B6C3F1 mice. The following applies: endpoint: median survival time, schedule: Q01DX009 (ip), higher = longer survival. Put shortly:
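Antitumor effect was judged in mice with transplanted tumors by dividing the treated group's survival measure by that of vehicle controls.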

Setting [1] is: dose: 6.25 mg/kg/injection, vehicle: Klucel (hydroxypropylcellulose) (HPC).
The mark [2] stands for this setting: dose: 12.5 mg/kg/injection, vehicle: saline.
Where [3] appears, read: dose: 3.12 mg/kg/injection, vehicle: saline with Tween-80.
[4] abbreviates: dose: 6.25 mg/kg/injection, vehicle: saline with Tween-80.
[5] abbreviates: dose: 12.5 mg/kg/injection, vehicle: saline with Tween-80.
[6] abbreviates: dose: 12.5 mg/kg/injection, vehicle: Klucel (hydroxypropylcellulose) (HPC).
Setting [7] is: dose: 25.0 mg/kg/injection, vehicle: Klucel (hydroxypropylcellulose) (HPC).
Setting [8] is: dose: 50.0 mg/kg/injection, vehicle: Klucel (hydroxypropylcellulose) (HPC).
The mark [9] stands for this setting: dose: 100.0 mg/kg/injection, vehicle: Klucel (hydroxypropylcellulose) (HPC).
[10] abbreviates: dose: 25.0 mg/kg/injection, vehicle: saline.
Setting [11] is: dose: 50.0 mg/kg/injection, vehicle: saline.
The mark [12] stands for this setting: dose: 100.0 mg/kg/injection, vehicle: saline.
Where [13] appears, read: dose: 200.0 mg/kg/injection, vehicle: saline.
[14] abbreviates: dose: 200.0 mg/kg/injection, vehicle: Klucel (hydroxypropylcellulose) (HPC).
The mark [15] stands for this setting: dose: 400.0 mg/kg/injection, vehicle: Klucel (hydroxypropylcellulose) (HPC).
Setting [16] is: dose: 25.0 mg/kg/injection, vehicle: saline with Tween-80.
The mark [17] stands for this setting: dose: 50.0 mg/kg/injection, vehicle: saline with Tween-80.
[18] abbreviates: dose: 100.0 mg/kg/injection, vehicle: saline with Tween-80.

Several values for one entry are separate records, joined by “and”; a condition that tells them apart may be missing. Identical values can stand only once. Toxic doses and inconclusive results are not listed. Where a SMILES comes first, the peptide text is derived from it. The star is where a group is joined. Cbz = O=C(OCc1ccccc1)*

With `CCCCCC[Se][Se]CCCCCC`, the T/C is 97 % of control (dose: 1.56 mg/kg/injection, vehicle: Klucel (hydroxypropylcellulose) (HPC)); 106 % of control (dose: 3.12 mg/kg/injection, vehicle: Klucel (hydroxypropylcellulose) (HPC)); 95 % of control under setting [1].

Turning to `CN1CCN(CCCN2c3ccccc3Sc3ccc(C(F)(F)F)cc32)CC1`, the T/C is, setting by setting: (dose: 3.12 mg/kg/injection, vehicle: saline) 100 % of control; (dose: 6.25 mg/kg/injection, vehicle: saline) 106 % of control; (dose: 8.0 mg/kg/injection, vehicle: saline) 107 % of control; under setting [2], 98 % of control; (dose: 16.0 mg/kg/injection, vehicle: saline) 93 % of control; (dose: 32.0 mg/kg/injection, vehicle: saline) 87 % of control.

Regarding `C=C(C)[C@]12CC(C)C34OC(/C=C\C=C\CCCCCCCCC)(O[C@@H]1[C@@H]3[C@@H]1O[C@]1(CO)[C@@H](O)[C@]1(O)C(=O)C(C)=C[C@@H]41)O2` (some centres not stated), the T/C by setting is: (dose: 0.09 mg/kg/injection, vehicle: distilled water + alcohol) 110 % of control; (dose: 0.18 mg/kg/injection, vehicle: distilled water + alcohol) 110 % of control; (dose: 0.37 mg/kg/injection, vehicle: distilled water + alcohol) 104 % of control.

As for `COC1=CC(=O)C(OC)=C(OC)C1=O`, the T/C was 97 % of control under setting [3], 92 % of control under setting [4] and 99 % of control under setting [5].

`Cc1cc(N/N=C/c2ccccn2)nc2ccccc12`: the T/C under setting [1] was 96 % of control; the T/C under setting [6] was 94 % of control and 99 % of control; the T/C under setting [7] was 97 % of control and 98 % of control; the T/C under setting [8] is 93 % of control and 101 % of control; the T/C under setting [9] is 103 % of control and 106 % of control.

Regarding `CN(C)CCC(=O)C(=Cc1ccc(O)cc1)C(=O)CCN(C)C`, the T/C is 101 % of control under setting [2]; 97 % of control under setting [10]; 101 % of control under setting [11]; 97 % of control under setting [12]; 102 % of control under setting [13].

Consider `c1cc[c]([Sn]([NH]c2ncnc3[nH]cnc23)([NH]c2ncnc3[nH]cnc23)[c]2ccccc2)cc1`, for which the T/C by setting is: under setting [2], 105 % of control; under setting [10], 100 % of control; under setting [11], 100 % of control; under setting [12], 106 % of control; under setting [13], 116 % of control.

On to `O=C(NC(Cc1cnc[nH]1)C(=O)NC(Cc1ccc(O)cc1)C(=O)O)OCc1ccccc1` (stereo not drawn) (Cbz-His-Tyr-OH; configuration not given here), for which the T/C is 102 % of control under setting [9], 103 % of control under setting [14] and 110 % of control under setting [15].

For the compound `COC1/C=C\C=C(/C)C(=O)NC2=CC(=O)C(NCCCl)=C(CC(C)CC(OC)C(O)C(C)/C=C(/C)C1OC(N)=O)C2=O` (configuration not stated), the T/C (dose: 3.0 mg/kg/injection, vehicle: DMSO) is 109 % of control and 103 % of control; the T/C (dose: 6.0 mg/kg/injection, vehicle: DMSO) is 112 % of control and 106 % of control; the T/C (dose: 12.0 mg/kg/injection, vehicle: DMSO) was 112 % of control and 123 % of control; the T/C (dose: 24.0 mg/kg/injection, vehicle: DMSO) is 109 % of control and 120 % of control.

On to `O=NN(CCCl)C(=O)NCCO`, for which the T/C was 102 % of control (dose: 1.5 mg/kg/injection, vehicle: water); 122 % of control (dose: 1.56 mg/kg/injection, vehicle: water); 104 % of control (dose: 3.0 mg/kg/injection, vehicle: water); 189 % of control (dose: 3.12 mg/kg/injection, vehicle: water); 105 % of control (dose: 6.0 mg/kg/injection, vehicle: water); 201 % of control (dose: 6.25 mg/kg/injection, vehicle: water). The T/C is 109 % of control (dose: 12.0 mg/kg/injection, vehicle: water) and 194 % of control (dose: 12.5 mg/kg/injection, vehicle: water).

As for `Nc1nc2c(ncn2C2OC(CO)C(O)C2O)c(=O)[nH]1` (configuration not stated), the T/C reads like this: (dose: 75.0 mg/kg/injection, vehicle: saline with Tween-80) 120 % of control; (dose: 1200.0 mg/kg/injection, vehicle: saline with Tween-80) 121 % of control; (dose: 2400.0 mg/kg/injection, vehicle: saline with Tween-80) 116 % of control.

With `Nc1nc(N)c2c(Cl)c(CNc3ccc(Cl)c(Cl)c3)ccc2n1`, the T/C is, setting by setting: under setting [3], 121 % of control; under setting [4], 106 % of control; under setting [5], 123 % of control.

Take `c1ccc(P(CCNCCP(c2ccccc2)c2ccccc2)c2ccccc2)cc1`: the T/C under setting [16] is 113 % of control, the T/C under setting [17] is 105 % of control and the T/C under setting [18] is 116 % of control.

Take `C[Si](C)(CCl)N[Si](C)(C)CCl`: the T/C was 100 % of control under setting [5], 104 % of control under setting [16], 99 % of control under setting [17] and 96 % of control under setting [18].

`CCCCCC[C@H]([C@H](C)O)n1cnc2c(N)ncnc21`: the T/C reads like this: under setting [6], 122 % of control; under setting [7], 88 % of control; under setting [8], 111 % of control and 92 % of control; under setting [9], 84 % of control and 92 % of control; under setting [14], 79 % of control.

Regarding `O=C(Nc1ccc(C2=NCCCN2)cc1)c1ccc(C(=O)Nc2ccc(C3=NCCCN3)cc2)nc1`, the T/C (dose: 0.31 mg/kg/injection, vehicle: saline with Tween-80) is 100 % of control; the T/C (dose: 0.62 mg/kg/injection, vehicle: saline with Tween-80) is 106 % of control; the T/C (dose: 1.25 mg/kg/injection, vehicle: saline with Tween-80) was 105 % of control; the T/C (dose: 2.5 mg/kg/injection, vehicle: saline with Tween-80) is 100 % of control; the T/C (dose: 5.0 mg/kg/injection, vehicle: saline with Tween-80) is 100 % of control.

For the compound `CCCCC(NC(=O)CN)C(=O)O` (configuration not stated), the T/C under setting [9] was 103 % of control, the T/C under setting [14] is 107 % of control and the T/C under setting [15] is 122 % of control.

Consider `CCCCCCCCCCCCCCCCNc1cccc2ccccc12`, for which the T/C is, setting by setting: under setting [5], 96 % of control; under setting [16], 95 % of control; under setting [17], 94 % of control and 97 % of control; under setting [18], 92 % of control.

For `CC1=CC(=NN=c2cc(C)n([O-])c(C)c2)C=C(C)[N+]1=O`, the T/C was 91 % of control (dose: 12.5 mg/kg/injection, vehicle: suspension in saline); 107 % of control under setting [16]; 99 % of control (dose: 25.0 mg/kg/injection, vehicle: suspension in saline); 123 % of control under setting [17]; 95 % of control (dose: 50.0 mg/kg/injection, vehicle: suspension in saline); 121 % of control under setting [18]. For the same compound, where the note is “dose: 100.0 mg/kg/injection, vehicle: suspension in saline”, the T/C is 108 % of control.

For `C[As](C)SCCC(N)C(=O)NC(CCS[As](C)C)C(=O)O` (configuration not stated), the T/C reads like this: under setting [1], 86 % of control; under setting [6], 91 % of control; under setting [7], 96 % of control; under setting [8], 96 % of control.

Take `O=C1CNC(=O)N1CN1CCOCC1`: the T/C was 94 % of control under setting [8], 94 % of control under setting [9], 115 % of control under setting [14] and 101 % of control under setting [15].

Consider `CN(C)N=Nc1cccc(C(N)=O)c1`, for which the T/C reads like this: under setting [11], 119 % of control; under setting [12], 67 % of control.
